In ChEMBL document CHEMBL1201862, “PubChem BioAssay data set” (2004):
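Dose response: 5 concentrations. Exposure: 48 h. Format: 96-well plates. Endpoint: linear interpolation; highest concentration if not reached. Here, GI50 denotes the concentration required for 50% inhibition of growth.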 Calls of active or inactive are those of the source. Cut-off read from the data, not from the text of the source: active = GI50 up to about 1.1 µM and inactive = higher.

What was measured:
Test in all cases: DTP human tumour cell line panel, 48 h
[1] = system: SK-MEL-5
[2] = system: NCI-H522
[3] = system: RXF 393
[4] = system: 786-0
[5] = system: A498
[6] = system: LXFL 529
[7] = system: SN12C
[8] = system: SNB-78
[9] = system: KM12
[10] = system: DLD-1
[11] = system: U-251
[12] = system: OVCAR-5
[13] = system: K562
[14] = system: LOX IMVI
[15] = system: CCRF-CEM
[16] = system: IGROV-1
[17] = system: OVCAR-4
[18] = system: MOLT-4
[19] = system: HOP-92
[20] = system: SW-620
[21] = system: HOP-62
[22] = system: HL-60
[23] = system: M19-MEL
[24] = system: HCT-15
[25] = system: CAKI-1
[26] = system: OVCAR-8
[27] = system: SF-539
[28] = system: DMS-273
[29] = system: SNB-75
[30] = system: HCC 2998
[31] = system: HOP-18
[32] = system: ACHN
[33] = system: TK-10
[34] = system: XF498
[35] = system: COLO 205
[36] = system: M14
[37] = system: HT-29
[38] = system: SK-MEL-2
[39] = system: SF-295
[40] = system: KM-20L2
[41] = system: SK-OV-3
[42] = system: RPMI-8226
[43] = system: Malme-3M
[44] = system: DMS-114
[45] = system: A549
[46] = system: HCT-116
[47] = system: OVCAR-3
[48] = system: UACC-62
[49] = system: EKVX
[50] = system: UACC-257
[51] = system: SNB-19
[52] = system: NCI-H460
[53] = system: NCI-H23
[54] = system: SF-268
[55] = system: UO-31

Cc1nnc2n1N=C(c1ccccc1)C(c1ccccc1)S2 (stereo not given)
GI50 [1]: 48.9 µM (inactive)
GI50 [2]: 24.6 µM (inactive)
GI50 [3]: 36.1 µM (inactive)
GI50 [4]: 27 µM (inactive)
GI50 [5]: 64 µM (inactive)
GI50 [6]: 29.4 µM (inactive)
GI50 [7]: 59.6 µM (inactive)
GI50 [8]: 55.5 µM (inactive)
GI50 [9]: 42.1 µM (inactive)
GI50 [10]: 55.3 µM (inactive)
GI50 [11]: 23.1 µM (inactive)
GI50 [12]: > 100 µM (inactive)
GI50 [13]: 31.8 µM (inactive)
GI50 [14]: 45.2 µM (inactive)
GI50 [15]: 19.3 µM (inactive)
GI50 [16]: 97.5 µM (inactive)
GI50 [17]: 57.9 µM (inactive)
GI50 [18]: 34.1 µM (inactive)
GI50 [19]: 60.4 µM (inactive)
GI50 [20]: 11.2 µM (inactive)
GI50 [21]: 72.3 µM (inactive)
GI50 [22]: 24.5 µM (inactive)
GI50 [23]: 43.8 µM (inactive)
GI50 [24]: 26.2 µM
GI50 [25]: 64.9 µM (inactive)
GI50 [26]: 39.4 µM (inactive)
GI50 [27]: 31 µM (inactive)
GI50 [28]: 22.3 µM (inactive)
GI50 [29]: 17.8 µM (inactive)
GI50 [30]: 34.8 µM (inactive)
GI50 [31]: 60.7 µM (inactive)
GI50 [32]: 33.2 µM (inactive)
GI50 [33]: > 100 µM (inactive)
GI50 [34]: > 100 µM (inactive)
GI50 [35]: 21.3 µM (inactive)
GI50 [36]: 16.3 µM (inactive)
GI50 [37]: 34.8 µM (inactive)
GI50 [38]: 29.9 µM (inactive)
GI50 [39]: 62.4 µM (inactive)
GI50 [40]: 27.4 µM (inactive)
GI50 [41]: 27.2 µM (inactive)
GI50 [42]: 43.6 µM (inactive)
GI50 [43]: 64.1 µM (inactive)
GI50 [44]: 25.5 µM (inactive)
GI50 [45]: 45.4 µM (inactive)
GI50 [46]: 38.2 µM (inactive)
GI50 [47]: 36.9 µM (inactive)
GI50 [48]: 39.5 µM (inactive)
GI50 [49]: 64 µM (inactive)
GI50 [50]: 67.1 µM (inactive)
GI50 [51]: 46.3 µM (inactive)
GI50 [52]: 34.6 µM (inactive)
GI50 [53]: 24.3 µM (inactive)
GI50 [54]: 44.9 µM (inactive)
GI50 [55]: 51.3 µM (inactive)
